{"source": "patent US10941382B2", "about": "“Platelet production promoter and method of producing platelets using same” (Kyoto University, priority 2016, dated 2021)", "key": {"iPS cells (TkDA3-4)": {"system": "iPS cells (TkDA3-4)", "assay": "Platelet production from iPS cell-derived cells under nonuse of feeder cells, FACS (anti-CD41/anti-CD42b)", "type": "cell-based", "conditions": "10 days of culture, 1 μM C59 or 3.3 μM FLT3 inhibitor versus 0.75 μM SR1, heparin, Y-27632, TPO, SCF", "method": "iPS cells (TkDA3-4) were cultured and a colony was detached using a cell scraper and was cultured on a differentiation medium supplemented with […] VEGF. After 14 days, the cells were recovered using a cell scraper and 25 U/mL heparin, 10 μM Y-27632, 100 ng/mL TPO, and 50 ng/mL SCF were added. 0.1% DMSO, 0.75 μM SR1, 1 μM C59 (Calbiochem), or 3.3 μM FLT3 inhibitor (Santa Cruz Biotechnology) was also added to this culture medium and culture was carried out for 10 days. This was also carried out under the condition of the use of feeder cells as described above. The obtained cells were suspended and the supernatant was recovered; staining with anti-CD41 antibody and anti-CD42b antibody was performed; and FACS analysis was carried out (FIG. 4)."}, "MKCL SeV2": {"system": "MKCL SeV2", "assay": "Relative number of platelets by FACS (anti-CD41/anti-CD42b) from immortalized megakaryocyte line cultured with inhibitor", "type": "cell-based, human", "conditions": "7th day of cultivation; 6-well dish; medium with 10 μM Y-27632, 50 ng/mL TPO, 50 ng/mL SCF; conclusion from FIG. 3 and FIG. 4 results", "method": "The platelet production-promoting effect of the Wnt inhibitor and FLT3 inhibitor was then investigated. MKCL SeV2, on which the aforementioned reporter immortalized megakaryocyte cell line (MKCL#12-23 cre2) was based, was cultured in a 6-well dish on a differentiation medium supplemented with the Wnt or FLT3 inhibitor, 10 μM Y-27632, 50 ng/mL TPO, and 50 ng/mL SCF, or on a differentiation medium supplemented with 0.75 μM SR1, 10 μM Y-27632, 50 ng/mL TPO, and 50 ng/mL SCF (positive control), or on a differentiation medium supplemented with 0.1% DMSO, 10 μM Y-27632, 50 ng/mL TPO, and 50 ng/mL SCF (negative control). On the 7th day of cultivation, the culture medium was suspended and the supernatant was recovered; staining with anti-CD41 antibody and anti-CD42b antibody was performed; and FACS analysis was carried out. The relative number of platelets was calculated with correction of the platelet count for use of the particular inhibitor with the platelet count for the positive control (made 100%) and the platelet count for the negative control (made 0%) (FIG. 4)."}, "[1]": {"system": "reporter immortalized megakaryocyte cell line (MKCL#12-23 cre2)", "assay": "VENUS fluorescence intensity of reporter immortalized megakaryocyte cell line cultured with inhibitor", "type": "cell-based, human", "conditions": "7th day of culture; 96-well dish; medium with 10 μM Y-27632, 50 ng/mL TPO, 50 ng/mL SCF; versus 0.1% DMSO negative control", "method": "The platelet production-promoting effect of a Wnt inhibitor and FLT3 inhibitor was then investigated. The aforementioned reporter immortalized megakaryocyte cell line (MKCL#12-23 cre2) was cultured in a 96-well dish on a differentiation medium supplemented with the particular inhibitor at a prescribed concentration, 10 μM Y-27632, 50 ng/mL TPO, and 50 ng/mL SCF, or on a differentiation medium supplemented with 0.75 μM SR1, 10 μM Y-27632, 50 ng/mL TPO, and 50 ng/mL SCF (positive control), or on a differentiation medium supplemented with 0.1% DMSO, 10 μM Y-27632, 50 ng/mL TPO, and 50 ng/mL SCF (negative control). When the VENUS fluorescence intensity was measured on the cells on the 7th day of culture, the fluorescence intensity was increased for media to which the Wnt inhibitor or FLT3 inhibitor had been added. The results of calculation of the relative fluorescence intensity are given in FIG. 3, where the platelet count for use of the particular inhibitor was corrected with the platelet count for the positive control (made 100%) and the platelet count for the negative control (made 0%)."}}}
{"molecule": "Cc1cc(-c2ccc(CC(=O)Nc3ccc(-c4cccnc4)cc3)cc2)ccn1", "note": "[C59, 4-(2-methyl-4-pyridinyl)-N-[4-(3-pyridinyl)phenyl]benzeneacetamide]", "values": [{"measurement": "platelet production capacity compared with SR1", "setting": "iPS cells (TkDA3-4)", "value": "same as or greater"}, {"measurement": "platelet production-promoting effect (platelet inducer)", "setting": "MKCL SeV2", "value": "strong platelet inducers"}, {"measurement": "VENUS fluorescence intensity", "setting": "[1]", "value": "increased"}]}
{"molecule": "COc1ccc(C(=O)Nc2sc3c(c2C(N)=O)CCCC3)cc1OC", "note": "[FLT3 inhibitor, 2-[(3,4-dimethoxybenzoyl)amino]-4,5,6,7-tetrahydrobenzo[b]thiophene-3-carboxamide]", "values": [{"measurement": "platelet production capacity compared with SR1", "setting": "iPS cells (TkDA3-4)", "value": "same as or greater"}, {"measurement": "platelet production-promoting effect (platelet inducer)", "setting": "MKCL SeV2", "value": "strong platelet inducers"}, {"measurement": "VENUS fluorescence intensity", "setting": "[1]", "value": "increased"}]}
